Test results reported in patent US5260321A, “Use of 1,4-dihydropyridine derivatives and combinations thereof with calcitonins” (priority 1984, dated 1993).

What was measured:
Assay type in all cases: in vivo
[1] = system: neointimal lesion development in the rat carotid artery; assay: Inhibition of neointimal lesion development in the rat carotid artery (balloon catheterization test); conditions: for Maximal intimal height: mean ± SD
Method: The anti-atherogenic activity has been confirmed also by measurement of the inhibition of neointimal lesion development in the rat carotid artery (balloon catheterization test, essentially as published in A. W. Clowes et al., Lab. Invest. 49 [1983]208-215).
In a first experiment a group of 12 rats was given PN 250 μg/kg/day in 10% ethanol-water s.c. A control group of 9 animals was non-injected and a further control group of 7 animals was vehicle-injected. Animals were randomized into 3 groups for catheterization and were weighed every other day throughout the study. Rats were anesthetized with ether inhalation. The […] region was shaved and the external branch of the left common carotid artery was isolated by an incision from the lower mandible to the clavicle, followed by retracting the submaxillary gland (lateral) and several muscle bundles including the sternohyoideus (medial), sternomastoideus (lateral) and digastricus posterior belly (lateral). […] Lidocaine was applied to vasodilate during catheter introduction. Following an incision with iris scissors, a Fogarty arterial embolectomy catheter (No. 2F) was inserted into the external branch of the carotid, passed into the aortic arch and slightly withdrawn to assure inflation of the catheter within the common carotid artery. The catheter was inflated using approximately 900 mmHg air pressure, drawn distally and deflated. This was repeated three times to assure complete de-endothelialization of the common carotid. The catheter was removed, the artery ligated and the incision closed. Under these conditions the carotid is completely de-endothelialized.
Animals were sacrificed 14 days after ballooning in the same sequence as the catheterization. Thirty minutes before fixation the animals were injected with a 2.25% Evan's Blue dye solution (1.5 mg/kg iv) to differentiate between the neointimal and re-endothelialized areas. Areas of the carotid that have endothelial regrowth exclude the dye and appear white. The remaining areas that lack endothelium are stained blue. Whole body (beating heart) perfusion fixations (90-110 mmHg) were then performed on anesthetized (sodium pentobarbital, 50.0 mg/kg ip) animals using 200 ml of 1% glutaraldehyde in 0.15M sodium cacodylate buffer (pH 7.4, 37° C., 410 mOsm) followed by 400 ml of 3% glutaraldehyde in 0.15M sodium cacodylate. The entry site of the fixative was a puncture in the left ventricle, with efflux collected by vacuum suction from the right atrium. The thoracic aorta flow was restricted to optimize carotid perfusion. Successful fixation was judged by upper body rigidity and an absence of blood from the large arteries.
In a second experiment the procedure as described above was followed, with groups consisting of non-injected controls (n=8), animals treated with PY (n=5) or PN (n=8). Animals received drug for 2 days before catheterization and to the conclusion of the study (14 days). PY and PN were given at 1.0 mg/kg in 10% EtOH-water s.c. All animals (controls and drug-treated) were randomized into 3 groups for catheterization.
After each experiment the fixed carotid was removed and cut into 3 segments (distal, central, proximal). Tissue processing of only the central segment included 18 hours in 3% buffered glutaraldehyde, buffer rinsing, dehydration in an ascending ethanol series and infiltration with Spurr's resin. The samples were embedded with cross-sectional orientation so that sectioning (0.5 μm) would include blue areas which have not re-endothelialized and show continued proliferative responses. A two-step polychromatic stain utilizing toluidine blue and 1.0% basic fuchsin rendered histological differentiation to nuclear, cytoplasmic and extracellular connective matrix components.
All light microscopic histology slides were randomized, encoded and evaluated utilizing a Zeiss standard microscope and the Videoplan computerized image analyzer. Vessel measurements included maximum lesion height. […]

[2] = system: ionized calcium concentration in the blood; assay: Rabbit test: ionized calcium in blood by calcium ion selective electrode; conditions: PN alone
Method: (§1) The effect of the compounds of the invention in lowering calcium levels is indicated in any standard animal test for hypercalcemic activity. In one test the compound is administered to rabbits (e.g. ca. 1 kg in weight) either as a suspension e.g. 0.1 to 5 mg (e.g. 0, 1 mg) per ml of solution (i.e. blood plasma with ca. 1-5% alcohol) and 0.1-5 mg/kg animal body weight by intravenous infusion (0.5 ml per hour) or orally e.g. 1 to 5 mg/kg animal body weight as a suspension in distilled water. A significant lowering of calcium ions is observed using standard measuring techniques for calcium ions in the blood, e.g. using a calcium ion selective electrode, or by photometric methods.
One method for measuring calcium ion concentrations is as follows: […]
The concentration of ionized calcium in the blood is measured potentiometrically as follows: The difference in potential between the reference electrode and the Ca^2+ -selective electrode is measured differentially relative to the common electrode. The difference is amplified and the analogue signal produced by the amplifier is processed by a digital voltmeter and continuously recorded as a function of time, the difference in voltage being proportional to the Ca^2+ concentration. […]

total calcium = assay: Rabbit intravenous experiment repeated, total calcium measured photometrically; conditions: intravenous infusion, photometric
Method: as §1
The intravenous experiment is repeated measuring total calcium photometrically. Drop in calcium levels over 11/2 hours=23%, over 21/2 hours=30%.

[3] = Expt. 2, 1.0 mg/kg s.c. from 2 days before catheterization to day 14, controls 72.4 ± 17.4

Row | SMILES | Inhibition of lesion development ([1]; Expt. 1, 0.25 mg/kg/d) [%] | Maximal intimal height ([1]; Expt. 1, 0.25 mg/kg/day s.c., 14 days after ballooning, controls 84.9 ± 21.3) [μm] | Maximal intimal height [1, 3] [μm] | Inhibition of lesion development ([1]; Expt. 2, 1.0 mg/kg/d) [%] | Lowering of ionized calcium ([2]; intravenous infusion, 0.5 mg/0.5/over 1 hour) | Lowering of ionized calcium ([2]; oral 1 mg/kg) | Drop in calcium levels (total calcium) (total calcium; over 11/2 hours) [%] | Drop in calcium levels (total calcium) (total calcium; over 21/2 hours) [%] | Tolerability ([1]; rats, s.c., all doses used (0.25 and 1.0 mg/kg))
1 | COC(=O)C1=C(C)NC(C)=C(C(=O)OC(C)C)C1c1cccc2nonc12 (centres unmarked) [PN, 4-(2,1,3-benzoxadiazol-4yl)-1,4-dihydro-2,6-dimethyl-3-methoxycarbonyl-pyridine-5-carboxylic acid isopropyl ester] | 26 | 63.2 ± 19.9 | 38.9 ± 22.0 | 46 | 10-20% | 5-10% | 23 | 30 | 
2 | CCOC(=O)C1=C(C)NC(C)=C(C(=O)OCC)C1c1cccc2nonc12 [PY, 4-(2,1,3-benzoxadiazol-4-yl)-1,4-dihydro-2,6-dimethylpyridine-3,5-dicarboxylic acid diethyl ester] |  |  | 58.6 ± 18.1 | 19 |  |  |  |  | tolerated at all doses used
